{"source": "ChEMBL document CHEMBL1150967", "about": "“Two new diterpene glycosides from the soft coral lemnalia bournei” (J Nat Prod, 1998)", "assay_type_in_all_cases": "functional, cell-based", "key": {"[1]": {"assay": "Cytotoxicity against mouse EAC cells", "conditions": "Ehrlich"}, "[2]": {"assay": "Cytotoxicity against human HepA cells"}, "[3]": {"assay": "Cytotoxicity against mouse S180A cells"}}}
{"smiles": "CC(=O)O[C@@H]1[C@@H](O)[C@@H]2O[C@@H]([C@H](C)CCC[C@H](C)[C@@H]3CC=C(C)[C@H]4CCC(C)=C[C@@H]34)OC[C@@H](O2)[C@H]1O", "note": "[LEMNABOURSIDE B]", "values": [{"measurement": "IC50", "setting": "[1]", "result": 73.3, "unit": "µg/mL"}, {"measurement": "IC50", "setting": "[2]", "result": 33.5, "unit": "µg/mL"}, {"measurement": "IC50", "setting": "[3]", "result": 40, "unit": "µg/mL"}]}
{"smiles": "CC(=O)O[C@H]1[C@H](O)[C@@H](O)[C@@H]2O[C@@H]([C@H](C)CCC[C@H](C)[C@@H]3CC=C(C)[C@H]4CCC(C)=C[C@@H]34)OC[C@H]1O2", "note": "[LEMNABOURSIDE C]", "values": [{"measurement": "IC50", "setting": "[1]", "result": 40.5, "unit": "µg/mL"}, {"measurement": "IC50", "setting": "[2]", "result": 41.4, "unit": "µg/mL"}, {"measurement": "IC50", "setting": "[3]", "result": 187, "unit": "µg/mL"}]}
{"smiles": "CC1=C[C@H]2[C@H]([C@H](C)CCC[C@@H](C)C3OC[C@H]4O[C@@H](O3)[C@H](O)[C@@H](O)[C@@H]4O)CC=C(C)[C@H]2CC1", "note": "(some centres undefined) [LEMNABOURSIDE]", "values": [{"measurement": "IC50", "setting": "[1]", "result": 97.8, "unit": "µg/mL"}, {"measurement": "IC50", "setting": "[2]", "result": 31.6, "unit": "µg/mL"}, {"measurement": "IC50", "setting": "[3]", "result": 27.4, "unit": "µg/mL"}]}
